This assay addresses T1, Human dopamine D4 receptor (Homo sapiens, UniProt P21917).
T1 sequence (P21917 1-419): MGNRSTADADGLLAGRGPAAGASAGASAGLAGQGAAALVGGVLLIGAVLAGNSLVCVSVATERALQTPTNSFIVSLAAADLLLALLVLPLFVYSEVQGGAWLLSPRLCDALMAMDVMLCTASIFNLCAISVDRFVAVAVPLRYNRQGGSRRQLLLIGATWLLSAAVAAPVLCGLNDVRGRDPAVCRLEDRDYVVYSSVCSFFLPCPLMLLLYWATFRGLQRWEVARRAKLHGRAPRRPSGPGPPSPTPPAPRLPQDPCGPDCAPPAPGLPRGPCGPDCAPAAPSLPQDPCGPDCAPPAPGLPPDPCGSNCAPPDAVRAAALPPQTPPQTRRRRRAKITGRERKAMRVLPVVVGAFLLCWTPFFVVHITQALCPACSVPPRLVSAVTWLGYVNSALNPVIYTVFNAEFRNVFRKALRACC
Put plainly: Agonistic/antagonistic activity in G protein dependent pathway (aequorin intracellular calcium luminescence), D4. In kind it is cell-based. Also noted: expressed in transfected cells; host or cells: CHO-K1 or HEK293 cells. The settings on record: read-out: Maximal activity on each receptor (%): D4. Here is the method: Plasmids encoding each receptor, aequorin and Gα16 were prepared, and the plasmids were transfected into CHO cells (Chinese Hamster Ovary cells) or HEK293 cells (Human Embryonic Kidney 293 cells) to prepare expressing cell lines.
The agonistic or antagonistic activity of the present compound in the G protein dependent pathway was evaluated on the basis of intracellular calcium levels as follows. CHO-K1 or HEK293 cell lines transfected with D2, D4, α1A, or α2A receptor genes were seeded in a 384-well plate, and incubated in a CO2 incubator at 37° C. for 24 hours, and then a solution of the present compound in DMSO was added into cells preloaded with coelenterazine to measure the change in luminescent signals with a FDSS (Hamamatsu Photonics K.K.). […] The agonistic activity of the present compound was calculated according to the measured luminescent signals, as the maximal activity (Emax) of the present compound. On the other hand, the antagonistic activity of the present compound was calculated according to the luminescent signals in wells with 10 μM of an endogenous ligand alone defined as 100%, as the inhibitory activity of the present compound to an endogenous ligand. EC50 value was calculated as the concentration of the present compound required to achieve a 50% response, and IC50 was calculated as the concentration of the present compound required to achieve a 50% inhibition of the Emax of an endogenous ligand.
(In general: A change in cytosolic calcium serves as a functional read-out for many receptors and channels.)

`CNc1nc(C)ncc1CN1CC=C(c2cccnc2)CC1` [Example 26]: the Emax at 1 µM came out at 75%.

Take `CCc1ncc(CN2CC=C(c3cccnc3)CC2)c(N)n1` [Example 11]: the Emax at 1 µM was found to be 93%.

On to `Cc1ncc(CN2CCCC(c3ccccn3)CC2)c(N)n1` (stereo not shown) [Example 42, 2-Methyl-5-[4-(pyridin-2-yl)azepan-1-ylmethyl]pyrimidin-4-amine], for which the Emax at 1 µM was found to be 71%.

Take `Cc1ncc(CN2CC=C(c3cccnc3)CC2)cn1` [Example 30]: the Emax at 1 µM was determined as 86%.

Turning to `Cc1ncc(CN2CC=C(c3ncccc3F)CC2)c(N)n1` [Example 3, 5-(3-Fluoro-3′,6′-dihydro-2,4′-bipyridin-1′(2′H)-ylmethyl)-2-methylpyrimidin-4-amine], the Emax at 1 µM amounted to 69%.

As for `Cc1ncc(CN2CCC(c3cccnc3)CC2)cn1` [Example 32], the Emax at 1 µM stood at 68%.

On to `Cc1ncc(CN2CCC(c3nccs3)CC2)c(N)n1` [Example 47, 2-Methyl-5-[4-(1,3-thiazol-2-yl)piperidin-1-ylmethyl]pyrimidin-4-amine], for which the Emax at 1 µM was 51%.

For `Cc1ncc(CN2CCC(c3cccnc3)CC2)c(N)n1` [Example 6, 2-Methyl-5-[4-(pyridin-3-yl)piperidin-1-ylmethyl]pyrimidin-4-amine], the Emax at 1 µM turned out to be 63%.

Regarding `Cc1ncc(CN2CC=C(c3cccnc3)CC2)c(C)n1` [Example 49], the Emax at 1 µM came to 66%.

For `CCc1ncc(CN2CCC(c3cccnc3)CC2)c(N)n1` [Example 13], the Emax at 1 µM was found to be 81%.

On to `Nc1nc(C2CC2)ncc1CN1CCC(c2ccccn2)CC1` [Example 19], for which the Emax at 1 µM was 64%.

With `Nc1nc(C2CCCC2)ncc1CN1CCC(c2cccnc2)CC1` [Example 24], the Emax at 1 µM worked out at 103%.

Consider `Cc1ncc(CN2CCCC(c3cccnc3)CC2)c(N)n1` (stereo not shown) [Example 43, 2-Methyl-5-[4-(pyridin-3-yl)azepan-1-ylmethyl]pyrimidin-4-amine], for which the Emax at 1 µM amounted to 92%.

For `Cc1ncc(CN2CC=C(c3ccccn3)CC2)c(C)n1` [Example 50], the Emax at 1 µM came to 70%.

`Nc1nc(C2CCCC2)ncc1CN1CCC(c2ccccn2)CC1` [Example 23]: the Emax at 1 µM amounted to 105%.

Turning to `Cc1ncc(CN2CCC(c3cccnc3)CC2C)c(N)n1` (stereo not shown) [Example 39, 2-Methyl-5-[2-methyl-4-(pyridin-3-yl)piperidin-1-ylmethyl]pyrimidin-4-amine], the Emax at 1 µM stood at 49%.

`Cc1cccc(C2=CCN(Cc3cnc(C)nc3N)CC2)n1` [Example 52]: the Emax at 1 µM is 67%.

For the molecule `Cc1ncc(CN2CCC(c3cc4ccccc4cn3)CC2)c(N)n1` [Example 9, 5-[4-(Isoquinolin-3-yl)piperidin-1-ylmethyl]-2-methylpyrimidin-4-amine], the Emax at 1 µM was 70%.

Regarding `Cc1ncc(CN2CCC(c3cccnc3)C(C)C2)c(N)n1` (stereo not shown) [Example 41, 2-Methyl-5-[3-methyl-4-(pyridin-3-yl)piperidin-1-ylmethyl]pyrimidin-4-amine], the Emax at 1 µM came out at 59%.

Regarding `CC(C)c1ncc(CN2CC=C(c3cccnc3)CC2)c(N)n1` [Example 15], the Emax at 1 µM stood at 131%.

Turning to `Cc1ncc(CN2CCC(c3cncc(F)c3)CC2)c(C)n1` [Example 48, 5-[4-(5-Fluoropyridin-3-yl)piperidin-1-ylmethyl]-2,4-dimethylpyrimidine], the Emax at 1 µM is 62%.

Turning to `CC(C)c1ncc(CN2CC=C(c3ccccn3)CC2)c(N)n1` [Example 14], the Emax at 1 µM worked out at 87%.

As for `Nc1nc(C2CC2)ncc1CN1CC=C(c2ccccn2)CC1` [Example 17], the Emax at 1 µM came to 72%.

Turning to `Cc1cncc(C2=CCN(Cc3cnc(C)nc3N)CC2)c1` [Example 54], the Emax at 1 µM stood at 60%.

Take `Cc1ncc(CN2CCC(c3ccccn3)CC2C)c(N)n1` (stereo not shown) [Example 38, 2-Methyl-5-[2-methyl-4-(pyridin-2-yl)piperidin-1-ylmethyl]pyrimidin-4-amine]: the Emax at 1 µM was 51%.

For the molecule `Cc1ncc(CN2CCC(c3ccccn3)CC2)cn1` [Example 31], the Emax at 1 µM stood at 82%.

`Cc1ncc(CN2CC=C(c3cccc(Cl)n3)CC2)c(N)n1` [Example 56]: the Emax at 1 µM worked out at 40%.

Take `Cc1ncc(CN2CCC(c3ccccn3)C(C)C2)c(N)n1` (stereo not shown) [Example 40, 2-Methyl-5-[3-methyl-4-(pyridin-2-yl)piperidin-1-ylmethyl]pyrimidin-4-amine]: the Emax at 1 µM came to 72%.

For the molecule `Cc1ncc(CN2CC=C(c3cc(Cl)ccn3)CC2)c(N)n1` [Example 55], the Emax at 1 µM is 88%.

Turning to `Nc1ncc(CN2CC=C(c3ccccn3)CC2)cn1` [Example 34, 5-(3′,6′-Dihydro-2,4′-bipyridin-1′(2′H)-ylmethyl)pyrimidin-2-amine], the Emax at 1 µM was 93%.

Consider `Cc1ncc(CN2CC=C(c3ccccn3)CC2)cn1` [Example 29, 1′-[(2-Methylpyrimidin-5-yl)methyl]-1′,2′,3′,6′-tetrahydro-2,4′-bipyridine], for which the Emax at 1 µM was 107%.

`Cc1ncc(CN2CCC(c3nccc4ccccc34)CC2)c(N)n1` [Example 8]: the Emax at 1 µM is 62%.

With `Cc1ncc(CN2CC=C(c3cncc(F)c3)CC2)c(N)n1` [Example 4, 5-(5-Fluoro-3′,6′-dihydro-3,4′-bipyridin-1′(2′H)-ylmethyl)-2-methylpyrimidin-4-amine], the Emax at 1 µM stood at 65%.

For the molecule `CNc1nc(C)ncc1CN1CCC(c2cccnc2)CC1` [Example 28], the Emax at 1 µM was determined as 62%.

`Nc1nc(C2CC2)ncc1CN1CCC(c2cccnc2)CC1` [Example 20]: the Emax at 1 µM came out at 54%.

Take `CNc1nc(C)ncc1CN1CC=C(c2ccccn2)CC1` [Example 25]: the Emax at 1 µM was 71%.

For `CCc1ncc(CN2CC=C(c3ccccn3)CC2)c(N)n1` [Example 10, 5-(3′,6′-Dihydro-2,4′-bipyridin-1′(2′H)-ylmethyl)-2-ethylpyrimidin-4-amine], the Emax at 1 µM was 110%.

`CNc1nc(C)ncc1CN1CCC(c2ccccn2)CC1` [Example 27]: the Emax at 1 µM worked out at 66%.

Take `Nc1ncc(CN2CC=C(c3cccnc3)CC2)cn1` [Example 35]: the Emax at 1 µM stood at 86%.

Take `Nc1nc(C2CCCC2)ncc1CN1CC=C(c2cccnc2)CC1` [Example 22]: the Emax at 1 µM stood at 72%.

On to `Cc1ncc(CN2CCC(c3cncc(F)c3)CC2)c(N)n1` [Example 7, 5-[4-(5-Fluoropyridin-3-yl)piperidin-1-ylmethyl]-2-methylpyrimidin-4-amine], for which the Emax at 1 µM turned out to be 64%.

In the case of `Cc1ccnc(C2CCN(Cc3cnc(C)nc3N)CC2)c1` [Example 57, 2-Methyl-5-[4-(4-methylpyridin-2-yl)piperidin-1-ylmethyl]pyrimidin-4-amine], the Emax at 1 µM came out at 62%.

In the case of `Nc1nc(C2CC2)ncc1CN1CC=C(c2cccnc2)CC1` [Example 18], the Emax at 1 µM was determined as 58%.

For the molecule `CCc1ncc(CN2CCC(c3ccccn3)CC2)c(N)n1` [Example 12], the Emax at 1 µM was found to be 101%.

On to `Cc1cncc(C2CCN(Cc3cnc(C)nc3N)CC2)c1` [Example 53], for which the Emax at 1 µM came out at 66%.

Turning to `CC(C)c1ncc(CN2CCC(c3cccnc3)CC2)c(N)n1` [Example 16], the Emax at 1 µM came to 78%.

In the case of `Cc1ncc(CN2CC=C(c3ccccn3)CC2)c(N)n1` [Example 1, 5-(3′,6′-Dihydro-2,4′-bipyridin-1′(2′H)-ylmethyl)-2-methylpyrimidin-4-amine], the Emax at 1 µM came out at 62%.

Take `Nc1nc(C2CCCC2)ncc1CN1CC=C(c2ccccn2)CC1` [Example 21]: the Emax at 1 µM was determined as 93%.

For `Cc1ccnc(C2=CCN(Cc3cnc(C)nc3N)CC2)c1` [Example 51], the Emax at 1 µM was determined as 88%.

These data come from patent US9732065B2, “Cyclic aminomethyl pyrimidine derivative” (Sumitomo Dainippon Pharma Co., Ltd., priority 2013, dated 2017).
